Test results as given in patent publication US8765803B1, “Rab7 GTPase inhibitors and related methods of treatment” (STC.UNM, priority 2011, dated 2014).
≈ marks a conversion by molar mass, not a printed value. Where “and” joins values, the source holds several entries; their conditions need not be identical. Equal entries are not always repeated. Where two headings read alike, the source gives them in different places.

Tests used:
U937 cells = assay: Cytotoxicity of compounds, cell density and viability; assay type: cell-based; conditions: 24 h
Experimental: U937 cells were grown to a density of 0.4×10^6 cells/mL Compounds were added to a final concentration of 20 μM or otherwise indicated. As a control, cells were treated with DMSO of the same volume. After 24 h incubation, the density and viability of the cells were measured with Countess Cell Counter according to the protocols from the manufacturer.

Rab7 GTPase = target: T1, Rab7 GTPase (UniProt P18067); assay: Multiplex bead-based flow cytometry dose-response, BODIPY-FL-GTP binding to GST-tagged GTPase; conditions: for EC50: mean of n replicates; for % Res: percent response
T1 construct: fused on or other part: GST tag, used to hold the protein on glutathione beads

[1] = Solubility in PBS and assay media, UV absorbance detection; assay type: physicochemical
Experimental: Solubility was measured in phosphate buffered saline (PBS) at room temperature (23° C.). PBS by definition is 137 mM NaCl, 2.7 mM KCl, 10 mM sodium phosphate dibasic, 2 mM potassium phosphate monobasic and a pH of 7.4. Detection was based on UV absorbance. […]. Solubility was also assessed in the each of the four media used in the individual assays. […]

[2] = tested on: Ras-related GTPases (Cdc42 wt, Rac1wt, Rac1Q61L, Rab2 wt, Rab7 wt, and H-Ras wt); conditions: for Loss in potency across GTPases relative to CID1067700: compared across multiple/all GTPases; for Activity for all GTPases tested: multiplex GTPase screen
Experimental: The eight GTPases were grouped into two sets: Rab7, H-Ras wild type and its V12 mutant, and Cdc42 and its L61 mutant were assayed in a buffer containing 1 mM EDTA, while Rho, Rac1 and its L61 mutant, and Cdc42 and its L61 mutant were assayed in the same buffer but instead containing 1 mM Mg^2+ with Cdc42 and its mutant being tested in both buffers. Besides 1 mM EDTA or 1 mM Mg^2+, the buffer contained 30 mM HEPES, pH 7.5, 40 mM KCl, 100 mM NaCl, 0.1% (v/v) NP-40 and 1% BSA. For each multiplex reaction, an extra set of beads was included to serve as scavengers to bind any proteins that dissociate from their assigned bead set and thereby reduce interference due to protein dissociation during the assay. […] Briefly, each individual GST-tagged enzyme was incubated with 4 μm glutathione-coated microsphere beads overnight with gentle rotation. The microsphere beads have different red fluorescence dyes incorporated and therefore could be separated by a flow cytometer. The unbound enzyme was removed by sufficient washing with the buffer. The bead sets were then combined and dispensed to 384-well plates at 5 μL/well. For one plate, 0.5 μg each of the enzymes and 4.0×10^4 of each bead were used. Then 100 nL compound was added using Biomek FX followed by the addition of 5 μL/well of BODIPY-FL-GTP (ribose-linked BODIPY). […] The beads were aspirated and delivered with the HyperCyt® instrument and read on CyAnADP flow cytometer. Forward scatter and side scatter was used to define the whole bead population. […] The data was analyzed by the HyperView® software developed by Dr. Bruce Edward at the University of New Mexico.
Briefly, six sets of beads (each with a unique red fluorescence intensity) were individually coated with six representative GST-tagged Ras-related GTPases (Cdc42 wt, Rac1wt, Rac1Q61L, Rab2 wt, Rab7 wt, and H-Ras wt) (FIG. 29A). The individually conjugated beads were then assayed in the presence of individual compounds in the Molecular Libraries Small Molecule Repository using a HyperCyt flow cytometry to identify molecules that altered the binding of fluorescent nucleotide to Ras-family GTPases (36).

Rab7 wt = conditions: previously determined (ref 33); read-out: Equilibrium dissociation constant Kd for wild-type Rab7; cited from earlier work
[3] = Assay format EDTA (1 mM EDTA buffer, 100 nM BODIPY-FL-GTP)
[4] = Assay format Mg (1 mM Mg2+ buffer, 1 nM BODIPY-FL-GTP)
[5] = 23 °C, pH 7.4, aqueous buffer, Solubility
[6] = pH 7.5, aqueous with cosolvent or surfactant or cyclodextrin, Solubility

Compound | Cell viability of U937 cells after treatment (U937 cells; 20 μM) [%] | EC50 (Rab7 GTPase; [3]) [nM] | % Res (Rab7 GTPase; Assay format EDTA) [%] | EC50 (Rab7 GTPase; [4]) [nM] | % Res (Rab7 GTPase; Assay format Mg) [%] | also measured
CC1(C)Cc2c(sc(NC(=S)NC(=O)c3ccc(F)cc3)c2C(=O)O)CO1 [CID53377405, 2-(3-(4-Fluorobenzoyl)thioureido)-5,5-dimethyl-5,7-dihydro-4H-thieno[2,3-c]pyran-3-carboxylic acid] | 94 | 95 | 100 | 77 | 39 | solubility [1]: 67.6 μg/mL,; solubility [1, 5]: 85.7 µg/mL and 210 µM; solubility ([1]; pH 7.5): 69.1 μg/mL,; solubility [1, 6]: 98.2 µg/mL and 240 µM; solubility ([1]; pH 7.5, read-out: Solubility): 169.2 µM (≈ 69.1 µg/mL); solubility ([1]; read-out: Solubility): 165.5 µM (≈ 67.6 µg/mL)
CCC1(C)Cc2c(sc(NC(=S)NC(=O)c3ccccc3)c2C(=O)O)CO1 (stereo not drawn) [CID53377401] |  | 37 | 109 | 35 | 43 | 
CC1(C)Cc2c(sc(NC(=O)NC(=O)c3ccccc3)c2C(=O)O)CO1 [CID46916265, 2-(3-Benzoylureido)-5,5-dimethyl-5,7-dihydro-4H-thieno[2,3-c]pyran-3-carboxylic acid] |  |  |  |  |  | Loss in potency across GTPases relative to CID1067700 [2]: 35 fold; Loss in potency across GTPases relative to CID1067700 ([2]; listed as SID 99381130): 7 fold; Cell viability of U937 cells after treatment (U937 cells; 100 μM): 98% (100 μM)
CC1(C)Cc2c(sc(NC(=S)NC(=O)c3ccccc3F)c2C(=O)O)CO1 [CID53301935, 2-(3-(2-fluorobenzoyl)thioureido)-5,5-dimethyl-5,7-dihydro-4H-thieno[2,3-c]pyran-3-carboxylic acid] | 96 | 140 ± 160 | 97 ± 15 | 170 ± 210 | 45 ± 2 | 
CC1(C)Cc2c(sc(NC(=S)NC(=O)c3cccc(Br)c3)c2C(=O)O)CO1 [CID53301936] |  | 2510 ± 2100 | 41 ± 0 | > 100000 |  | 
COc1ccc(C(=O)NC(=S)Nc2sc3c(c2C(=O)O)CC(C)(C)OC3)cc1 [CID53301932, 2-(3-(4-Methoxybenzoyl)thioureido)-5,5-dimethyl-5,7-dihydro-4H-thieno[2,3-c]pyran-3-carboxylic acid] | 96 | 140 ± 70 | 94 ± 14 | 140 ± 110 | 54 ± 2 | 
CC1(C)Cc2c(sc(NC(=S)Nc3ccccc3)c2C(=O)O)CO1 [CID1280844, 5,5-dimethyl-2-(3-phenylthioureido)-5,7-dihydro-4H-thieno[2,3-c]pyran-3-carboxylic acid] |  |  |  |  |  | Activity for all GTPases tested [2]: inactive
COC(=O)c1c(NC(=S)NC(=O)c2ccccc2)sc2c1CC(C)(C)OC2 [CID1251121, Methyl 2-(3-benzoylthioureido)-5,5-dimethyl-5,7-dihydro-4H-thieno[2,3-c]pyran-3-carboxylate] |  |  |  |  |  | Activity for all GTPases tested [2]: complete loss of activity
CC1(C)Cc2c(sc(NC(=S)NC(=O)C3CCCCC3)c2C(=O)O)CO1 [CID53377396] |  | 810 | 89 | 460 | 39 | 
CC1(C)Cc2c(sc(NC(=S)NC(=O)c3cccs3)c2C(=O)O)CO1 [CID53377398] |  | 25 | 103 | 25 | 56 | 
Cc1ccccc1C(=O)NC(=S)Nc1sc2c(c1C(=O)O)CC(C)(C)OC2 [CID53377404] |  | 410 | 95 | 520 | 47 | 
CC1(C)Cc2c(sc(NC(=S)NC(=O)c3ccccc3Br)c2C(=O)O)CO1 [CID53301931, 2-(3-(2-Bromobenzoyl)thioureido)-5,5-dimethyl-5,7-dihydro-4H-thieno[2,3-c]pyran-3-carboxylic acid] | 94 | 430 ± 680 | 86 ± 10 | 650 ± 870 | 35 ± 4 | solubility [1]: >93 μg/mL,; solubility [1, 5]: > 93 µg/mL and > 198 µM; solubility ([1]; pH 7.5): >93 μg/mL,; solubility ([1]; pH 7.5, read-out: Solubility): >198 µM; solubility ([1]; read-out: Solubility): >198 µM
O=C(NC(=S)Nc1sc2c(c1C(=O)O)CCOC2)c1ccccc1 [CID46916266, 2-(3-benzoylthioureido)-5,7-dihydro-4H-thieno[2,3-c]pyran-3-carboxylic acid] |  |  |  |  |  | Cell viability of U937 cells after treatment (U937 cells; 100 μM): 92% (100 μM)
O=C(NC(=S)Nc1sc2c(c1C(=O)O)CC1(CCCC1)OC2)c1ccccc1 [CID53377403] |  | 35 | 72 | 33 | 56 | 
BODIPY FL GDP 2′-(or -3′)-O—[N-(2-aminoethyl)urethane] [BODIPY-GDP] |  |  |  |  |  | Kd (Rab7 wt): 40 nM
CC1Cc2c(sc(NC(=S)NC(=O)c3ccccc3)c2C(=O)O)CO1 (stereo not drawn) [CID46916263, 2-(3-benzoylthioureido)-5-methyl-5,7-dihydro-4H-thieno[2,3-c]pyran-3-carboxylic acid] |  |  |  |  |  | Cell viability of U937 cells after treatment (U937 cells; 100 μM): 94% (100 μM)
COc1cccc(C(=O)NC(=S)Nc2sc3c(c2C(=O)O)CC(C)(C)OC3)c1 [CID53301934, 2-(3-(3-Methoxybenzoyl)thioureido)-5,5-dimethyl-5,7-dihydro-4H-thieno[2,3-c]pyran-3-carboxylic acid] | 94 | 150 ± 130 | 68 ± 25 | 320 | 37 | solubility [1]: 54.5 μg/mL,; solubility [1, 5]: 36.5 µg/mL and 86.8 µM; solubility ([1]; pH 7.5): 29.7 μg/mL,; solubility [1, 6]: 33.8 µg/mL and 80.4 µM; solubility ([1]; pH 7.5, read-out: Solubility): 70.6 µM (≈ 29.7 µg/mL); solubility ([1]; read-out: Solubility): 129.6 µM (≈ 54.5 µg/mL)
CC1(C)Cc2c(sc(NC(=S)NC(=O)c3cccc(F)c3)c2C(=O)O)CO1 [CID53301930] | 92 | 320 ± 90 | 90 ± 6 | 290 ± 190 | 39 ± 3 | 
CC(C)(C)C1Cc2c(sc(NC(=S)NC(=O)c3ccccc3)c2C(=O)O)CO1 (stereo not drawn) [CID53377399] |  | 470 | 18 | 220 | 47 | 
Cc1ccc(C(=O)NC(=S)Nc2sc3c(c2C(=O)O)CC(C)(C)OC3)cc1 [CID53377395] |  | 140 | 102 | 97 | 40 | 
CC1(C)Cc2c(sc(NC(=O)Cc3ccccc3)c2C(=O)O)CO1 [CID740871, 5,5-dimethyl-2-(2-phenylacetamido)-5,7-dihydro-4H-thieno[2,3-c]pyran-3-carboxylic acid] |  |  |  |  |  | Activity for all GTPases tested [2]: complete loss of activity; Activity for all GTPases tested ([2]; listed as SID 9938117): inactive
CC1(C)Cc2c(sc(NC(=S)NC(=O)c3ccco3)c2C(=O)O)CO1 [CID53377402] |  | 74 | 105 | 82 | 63 | 
CC1(C)CCc2sc(NC(=S)NC(=O)c3ccccc3)c(C(=O)O)c2C1 [CID53301937] | 91 | 66 ± 20 | 97 ± 5 | 63 ± 10 | 53 ± 1 | 
CC1(C)Cc2c(sc(NC(=S)NC(=O)c3ccc(Br)cc3)c2C(=O)O)CO1 [CID53301933] | 93 | 300 ± 180 | 93 ± 6 | 270 ± 220 | 41 ± 6 | 
COc1ccccc1C(=O)NC(=S)Nc1sc2c(c1C(=O)O)CC(C)(C)OC2 [CID53377397] |  | 1120 | 52 |  |  | 
Cc1cccc(C(=O)NC(=S)Nc2sc3c(c2C(=O)O)CC(C)(C)OC3)c1 [CID53377400] |  | 1160 | 93 | 360 | 30 | 
